In ChEMBL document CHEMBL3232737, “Synthesis and in vitro evaluation of small-molecule [18F] labeled gonadotropin-releasing hormone (GnRH) receptor antagonists as potential PET imaging agents for GnRH receptor expression” (Bioorg Med Chem Lett, 2014):
Each block holds one compound with its values, some of them ahead of it.

Experiments:
[1] = biological target: T1, Gonadotropin-releasing hormone receptor (Rattus norvegicus, UniProt P30969); experiment: Displacement of [125I]Triptorelin from rat full-length gonadotropin-releasing hormone receptor expressed in HEK293 cells; assay type: cell-based
T1 sequence (P30969 whole entry): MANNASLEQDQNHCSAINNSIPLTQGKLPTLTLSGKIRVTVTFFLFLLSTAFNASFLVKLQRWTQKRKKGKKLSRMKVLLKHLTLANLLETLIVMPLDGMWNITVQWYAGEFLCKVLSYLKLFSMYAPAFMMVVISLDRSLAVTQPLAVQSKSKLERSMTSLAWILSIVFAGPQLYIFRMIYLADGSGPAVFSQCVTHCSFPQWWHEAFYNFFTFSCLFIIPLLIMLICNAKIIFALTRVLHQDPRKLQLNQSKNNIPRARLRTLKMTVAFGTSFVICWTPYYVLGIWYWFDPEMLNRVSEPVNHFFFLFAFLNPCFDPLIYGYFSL

[2] = Octanol-PBS partition coefficient, log P of the compound at 10 kBq at pH 7.4 by gamma counting analysis; assay type: physicochemical
[3] = biological target: T2, Gonadotropin-releasing hormone receptor (Homo sapiens, UniProt P30968); experiment: Binding affinity to human gonadotropin-releasing hormone receptor by radioligand displacement assay
T2 sequence (P30968 whole entry): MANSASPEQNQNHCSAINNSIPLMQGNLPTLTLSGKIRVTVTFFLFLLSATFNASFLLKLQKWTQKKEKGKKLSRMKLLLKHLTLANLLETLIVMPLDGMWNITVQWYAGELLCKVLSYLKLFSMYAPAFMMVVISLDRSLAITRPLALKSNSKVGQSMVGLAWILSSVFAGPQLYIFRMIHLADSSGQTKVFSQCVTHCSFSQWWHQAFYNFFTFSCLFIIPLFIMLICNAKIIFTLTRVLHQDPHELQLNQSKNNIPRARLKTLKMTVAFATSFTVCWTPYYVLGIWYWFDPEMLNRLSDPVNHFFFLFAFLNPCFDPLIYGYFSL

[4] = biological target: T3, Gonadotropin-releasing hormone receptor (Mus musculus, UniProt Q01776); experiment: Binding affinity to mouse gonadotropin-releasing hormone receptor by radioligand displacement assay
T3 sequence (Q01776 whole entry): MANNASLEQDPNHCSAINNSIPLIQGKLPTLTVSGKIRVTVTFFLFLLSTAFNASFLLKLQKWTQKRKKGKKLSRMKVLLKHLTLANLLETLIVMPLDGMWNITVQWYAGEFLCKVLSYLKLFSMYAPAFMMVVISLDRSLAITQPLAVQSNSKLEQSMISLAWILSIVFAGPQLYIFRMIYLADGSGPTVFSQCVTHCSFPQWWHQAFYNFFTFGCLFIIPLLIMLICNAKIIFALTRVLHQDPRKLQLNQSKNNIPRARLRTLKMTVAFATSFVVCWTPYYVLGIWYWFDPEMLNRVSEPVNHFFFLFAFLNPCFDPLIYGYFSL

Ki [1]: 42 nM
SMILES: COc1nc(F)nc(OC)c1NC(=O)c1ccc(Oc2cc3c(cc2C)CCC3(C)C)o1

Ki [1]: 1.36 nM
SMILES: COc1nc(OCCF)nc(OC)c1NC(=O)c1ccc(Oc2cc3c(cc2C)CCC3(C)C)o1

logD [2]: 1.74
SMILES: COc1nc(OCC[18F])nc(OC)c1NC(=O)c1ccc(Oc2cc3c(cc2C)CCC3(C)C)o1

Ki [3]: 6 nM | Ki [4]: 2.2 nM
SMILES: COc1cc(OC)c(NC(=O)c2ccc(Cc3cc4c(cc3C)C(C)(C)CCC4(C)C)o2)c(OC)c1
